Where a SMILES comes first, the peptide text is derived from it. Bridges are numbered along the chain shown (N, C = ends). [ ]: non-standard residue; d: D form. The star is where a group is joined. hPhe(3-Cl-4-CF3) = N[C@@H](CCc1ccc(C(F)(F)F)c(Cl)c1)C(=O)O; NPrPhe(4-CF3) = CCCN[C@@H](Cc1ccc(C(F)(F)F)cc1)C(=O)O; NMeGly(cPent) = CN[C@H](C(=O)O)C1CCCC1; Pro(4,4-F2) = O=C(O)[C@@H]1CC(F)(F)CN1; Hyp = O=C(O)[C@@H]1C[C@@H](O)CN1; NMeD = CN[C@@H](CC(=O)O)C(=O)O; NMeL = CN[C@@H](CC(C)C)C(=O)O; NMeNva = CCC[C@H](NC)C(=O)O; NMeAbu = CC[C@H](NC)C(=O)O; Morpholide = C1CN(*)CCO1; NMeA = CN[C@@H](C)C(=O)O; Ac5c = NC1(C(=O)O)CCCC1; Aze = O=C(O)[C@@H]1CCN1; Ac4c = NC1(C(=O)O)CCC1; Sar = CNCC(=O)O
Legend:
[1] = biological target: GDP-bound NRAS wild-type protein (Homo sapiens, UniProt P01111); assay: Binding to NRAS by surface plasmon resonance (SPR), KD and KD ratio to KRAS
GDP-bound NRAS wild-type protein, sequence (P01111 whole entry): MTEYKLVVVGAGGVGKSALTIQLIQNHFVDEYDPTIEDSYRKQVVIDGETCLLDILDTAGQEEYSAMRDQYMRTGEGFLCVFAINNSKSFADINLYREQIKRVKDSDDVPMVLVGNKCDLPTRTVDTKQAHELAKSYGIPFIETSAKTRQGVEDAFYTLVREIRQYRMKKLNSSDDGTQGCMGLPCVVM
How it was run: (§1)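 Captured GDP-RAS (~100–300 RU) was exposed to increasing compound concentrations, 75 s per step, in running buffer with 10 µM GDP, 10 mM MgCl2 and 4% DMSO at pH 7.4.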

[2] = biological target: HRAS wild-type protein (Homo sapiens, UniProt P01112); assay: Binding to HRAS by surface plasmon resonance (SPR), KD and KD ratio to KRAS
HRAS wild-type protein, sequence (P01112 whole entry): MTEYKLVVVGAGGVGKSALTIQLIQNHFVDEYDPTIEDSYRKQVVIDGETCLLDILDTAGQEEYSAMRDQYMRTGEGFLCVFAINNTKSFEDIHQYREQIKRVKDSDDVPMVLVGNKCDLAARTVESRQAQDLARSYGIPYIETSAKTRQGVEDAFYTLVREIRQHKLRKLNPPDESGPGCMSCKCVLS
How it was run: as §1

[3] = system: human lung cancer strain NCI-H441; type: cell-based
How it was run: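 Step one: dispense the test compound in serial DMSO dilutions. Step three: add the reagent and measure […].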

[4] = ratio of KD value for GDP-bound NRAS wild-type protein to KD value for KRAS (SPR)
[5] = ratio of KD value for HRAS wild-type protein to KD value for KRAS (SPR)
[6] = ratio of KD for GDP-bound NRAS wild-type protein to KD for KRAS
[7] = ratio of KD for HRAS wild-type protein to KD for KRAS
[8] = ratio of the KD value with respect to GDP-bound NRAS wild-type protein to the KD value with respect to KRAS
[9] = ratio of the KD value with respect to HRAS wild-type protein to the KD value with respect to KRAS

Structure (SMILES) | IC50 [3] [nM] | NRAS /KRAS [1, 4] | HRAS /KRAS [2, 5] | NRAS /KRAS [1, 6] | HRAS /KRAS [2, 7] | NRAS /KRAS [1, 8] | HRAS /KRAS [2, 9]
CCC[C@H]1C(=O)N[C@@H]([C@@H](C)CC)C(=O)N(C)[C@@H](C)C(=O)N2CC[C@H]2C(=O)N(CCC)[C@@H](Cc2ccc(C(F)(F)F)cc2)C(=O)N(C)CC(=O)N[C@@H](CCc2ccc(C(F)(F)F)c(Cl)c2)C(=O)N2CCC[C@H]2C(=O)NC2(CCCC2)C(=O)N(C)[C@@H](C2CCCC2)C(=O)N(C)[C@H](C(=O)N2CCOCC2)CC(=O)N1C [PP0193] ([NMeNva]I[NMeA][Aze][NPrPhe(4-CF3)][Sar][hPhe(3-Cl-4-CF3)]P[Ac5c][NMeGly(cPent)][NMeD]-Morpholide; lactam N-11) | 1.4 | – | – | C (A compound having a KD ratio of 0.1 or more and less than 3 is denoted as C) | C (A compound having a KD ratio of 0.1 or more and less than 3 is denoted as C) | – | –
CCCN1C(=O)[C@@H]2CCN2C(=O)[C@H](C)N(C)C(=O)[C@H]([C@@H](C)CC)NC(=O)[C@H](CC)N(C)C(=O)C[C@@H](C(=O)N2CCOCC2)N(C)C(=O)[C@H](C2CCCC2)N(C)C(=O)C2(CCCC2)NC(=O)[C@@H]2CC(F)(F)CN2C(=O)[C@H](CCc2ccc(C(F)(F)F)c(Cl)c2)NC(=O)CN(C)C(=O)[C@@H]1Cc1ccc(C(F)(F)F)cc1 [PP0206] ([NMeAbu]I[NMeA][Aze][NPrPhe(4-CF3)][Sar][hPhe(3-Cl-4-CF3)][Pro(4,4-F2)][Ac5c][NMeGly(cPent)][NMeD]-Morpholide; lactam N-11) | 2.2 | – | – | C (A compound having a KD ratio of 0.1 or more and less than 3 is denoted as C) | B (a compound having 3 or more and less than 10 is denoted as B) | – | –
CC[C@H](C)[C@@H]1NC(=O)[C@H](CC(C)C)N(C)C(=O)C[C@@H](C(=O)N2CCOCC2)N(C)C(=O)[C@H](C2CCCC2)N(C)C(=O)C2(CCCC2)NC(=O)[C@@H]2CCCN2C(=O)[C@H](CCc2ccc(C(F)(F)F)c(Cl)c2)NC(=O)CN(C)C(=O)[C@H](Cc2ccc(Cl)cc2)N2CC=CC[C@@H](C2=O)N(C)C(=O)CN(C)C1=O [PP0533] | 8.9 | – | – | – | – | C (A compound having a KD ratio of 0.1 or more and less than 3 is denoted as C) | C (A compound having a KD ratio of 0.1 or more and less than 3 is denoted as C)
CC[C@H](C)[C@@H]1NC(=O)[C@H](CC)N(C)C(=O)C[C@@H](C(=O)N(C)C)N(CC)C(=O)[C@H](C2CCCC2)N(C)C(=O)C2(CCC2)NC(=O)[C@@H]2CCN2C(=O)[C@H](CCc2cc(F)c(C(F)(F)F)c(F)c2)NC(=O)CN(C)C(=O)[C@H](Cc2ccc(C(F)(F)F)cc2)N2CCCC[C@@H](C2=O)N(C)C(=O)CN(C)C1=O [PP0660] | 131 | – | – | – | – | B (a compound having 3 or more and less than 10 is denoted as B) | B (a compound having 3 or more and less than 10 is denoted as B)
CC[C@H](C)[C@@H]1NC(=O)[C@H](CC(C)C)N(C)C(=O)C[C@@H](C(=O)N2CCOCC2)N(C)C(=O)[C@H](C2CCCC2)N(C)C(=O)C2(CCCC2)NC(=O)[C@@H]2CC(=O)CN2C(=O)[C@H](CCc2cc(F)c(C(F)(F)F)c(F)c2)NC(=O)CN(C)C(=O)[C@H](Cc2ccc(C(F)(F)F)cc2)N2CCCC[C@@H](C2=O)N(C)C(=O)CN(C)C1=O [PP0555] | 48.5 | – | – | – | – | B (a compound having 3 or more and less than 10 is denoted as B) | B (a compound having 3 or more and less than 10 is denoted as B)
CCCN1C(=O)[C@@H]2CCN2C(=O)[C@H](C)N(C)C(=O)[C@H]([C@@H](C)CC)NC(=O)[C@H](CC(C)C)N(C)C(=O)C[C@@H](C(=O)N(C)C)N(C)C(=O)[C@H](C2CCCC2)N(C)C(=O)C2(CCCC2)NC(=O)[C@@H]2C[C@@H](OCC)CN2C(=O)[C@H](CCc2ccc(C(F)(F)F)c(Cl)c2)NC(=O)CN(C)C(=O)[C@@H]1Cc1ccc(C(F)(F)F)cc1 [PP0438] ([NMeL]I[NMeA][Aze][NPrPhe(4-CF3)][Sar][hPhe(3-Cl-4-CF3)][Hyp](Et)[Ac5c][NMeGly(cPent)][NMeD]-NMe2; lactam N-11) | 1 | – | – | – | – | C (A compound having a KD ratio of 0.1 or more and less than 3 is denoted as C) | C (A compound having a KD ratio of 0.1 or more and less than 3 is denoted as C)
CCCN1C(=O)[C@@H]2CCN2C(=O)CN(C)C(=O)[C@H]([C@@H](C)CC)NC(=O)[C@H](CC(C)C)N(C)C(=O)C[C@@H](C(=O)N2CCOCC2)N(C)C(=O)[C@H](C2CCCC2)N(C)C(=O)C2(CCC2)NC(=O)[C@@H]2CC(F)(F)CN2C(=O)[C@H](CCc2ccc(C(F)(F)F)c(Cl)c2)NC(=O)CN(C)C(=O)[C@@H]1Cc1ccc(C(F)(F)F)cc1 [PP0409] ([NMeL]I[Sar][Aze][NPrPhe(4-CF3)][Sar][hPhe(3-Cl-4-CF3)][Pro(4,4-F2)][Ac4c][NMeGly(cPent)][NMeD]-Morpholide; lactam N-11) | 4.4 | – | – | – | – | C (A compound having a KD ratio of 0.1 or more and less than 3 is denoted as C) | C (A compound having a KD ratio of 0.1 or more and less than 3 is denoted as C)
CC[C@H](C)[C@@H]1NC(=O)[C@H](CC(C)C)N(C)C(=O)C[C@@H](C(=O)N2CCOCC2)N(CC)C(=O)[C@H](C2CCCC2)N(C)C(=O)C2(CCCC2)NC(=O)[C@@H]2CCCN2C(=O)[C@H](CCc2ccc(C(F)(F)F)c(Cl)c2)NC(=O)CN(C)C(=O)[C@H](Cc2ccc(F)cc2)N2CCCCC[C@@H](C2=O)N(C)C(=O)CN(C)C1=O [PP0970] | 340 | – | – | B (a compound having 3 or more and less than 10 is denoted as B) | B (a compound having 3 or more and less than 10 is denoted as B) | – | –

More lines, main results first:

IC50 [3] [nM] | Structure (SMILES) | NRAS /KRAS [1, 4] | HRAS /KRAS [2, 5] | NRAS /KRAS [1, 6] | HRAS /KRAS [2, 7] | NRAS /KRAS [1, 8] | HRAS /KRAS [2, 9]
18.3 | CC[C@H](C)[C@@H]1NC(=O)[C@H](CC2CCC2)N(C)C(=O)C[C@@H](C(=O)N(C)C)N(C)C(=O)[C@H](C2CCCC2)N(C)C(=O)C2(CC(C)(C)C2)NC(=O)[C@@H]2CCCN2C(=O)[C@H](CCc2cc(F)c(C(F)(F)F)c(F)c2)NC(=O)CN(C)C(=O)[C@H](Cc2ccc(C(F)(F)F)cc2)N2CC/C=C\C[C@@H](C2=O)N(C)C(=O)CN(C)C1=O [PP1728] | A (a compound having 10 or more and less than 20 is denoted as A) | A (a compound having 10 or more and less than 20 is denoted as A) | – | – | – | –
129 | CCCN(C)C(=O)[C@@H]1CC(=O)N(C)[C@@H](CC)C(=O)N[C@@H]([C@@H](C)CC)C(=O)N(C)CC(=O)N(C)[C@H]2C/C=C\CCN(C2=O)[C@@H](Cc2ccc(C(F)(F)F)cc2)C(=O)N(C)CC(=O)N[C@@H](CCc2cc(F)c(C(F)(F)F)c(F)c2)C(=O)N2CC[C@H]2C(=O)NC2(CCC2)C(=O)N(C)[C@@H](C2CCCC2)C(=O)N1C [PP2915] | – | – | A (a compound having 10 or more and less than 20 is denoted as A) | A (a compound having 10 or more and less than 20 is denoted as A) | – | –
48.9 | CCO[C@@H]1C[C@H]2C(=O)NC3(CCC3)C(=O)N(C)[C@@H](C3CCCC3)C(=O)N(C)[C@H](C)CC(=O)N(C)[C@@H](CC3CC3)C(=O)N[C@@H]([C@@H](C)CC)C(=O)N(C)CC(=O)N(C)[C@H]3C/C=C\CCN(C3=O)[C@@H](Cc3ccc(F)cc3)C(=O)N(C)CC(=O)N[C@@H](CCc3cc(F)c(C(F)(F)F)c(F)c3)C(=O)N2C1 [PP1490] | B (a compound having 3 or more and less than 10 is denoted as B) | B (a compound having 3 or more and less than 10 is denoted as B) | – | – | – | –
